Structures are written as SMILES. Read-outs that look alike come from different tables or passages of the source. Bounds are passed on as bounds.

Data set [1] has as its system carrageenin foot edema in male Wistar rats. In words: Inhibition of carrageenin foot edema in rats (Winter et al.). In kind it is in vivo. As to conditions: Rattus norvegicus, 2 h after irritant; for inhibition in vivo at 100 µmol/kg: 100 μmol/kg p.o. The procedure: A similar volume of isotonic sodium chloride solution was injected in the left hind foot. The volume of the each rat's foot was measured plethysmometrically both before and two hours after administration of the irritant, and the swelling of the foot volume after the carrageenin application was compared to the foot which was treated only with sodium chloride solution The inhibition of edema formation by the test substances in the treated animals was compared in percentage terms with the animals of the untreated control group.
(In the carrageenan paw model, swelling and tenderness develop within hours.)

The test system of a further data set is Lipoxygenase. In words: LTB4 synthesis and inhibition test (lipoxygenase inhibition in vitro) in polymorphonuclear leucocytes. In kind it is cell-based. As to conditions: PMNL; for inhibition at 100 µM: Homo sapiens, read-out: Lipoxygenase inhib. in vitro, % inhibition of the LTB4 synthesis at 10^-4 Mol/l. The procedure:
2. In order to investigate the lipoxygenase-inhibiting properties, the inhibiting effect of the substances on the biosynthesis of leucotriene B4 (=LTB4) from arachidonic acid by activated inflamed cells was determined in vitro. Leucotriene B4, a dihydroxy fatty acid which plays an important role not only in the inflammation but also in allergic reactions was oxidatively formed, starting from arachidonic acid, by oxidation through the action of the enzyme lipoxygenase.
LTB4 Synthesis and Inhibition Test.
The combined extracts were evaporated under vacuum to dryness and the residue was taken up in 0.5 ml 30% aqueous methanol and was analyzed with the aid of high pressure liquid chromatography with phase reversal (=reversed phase-HPLC). The stationary phase (=separating medium) consisted of silica gel containing octadecyl groups chemically bound thereto (=RSIL C18 HP; produced by Autech, Darfield, Ill.). The solvent mixture is methanol:water:acetic acid (67:33:0.1; v/v/v), which had been adjusted to a pH value of 6.2 with NH3 /H2 O. The flow velocity was 1 ml/min. […] The LTB4 signals were compared with those of the control (cell incubation with solvent) and reported as percent inhibition of LTB4 synthesis compared with the controls.

Data set [2] has as its system oxygen radical-forming activity of activated peritoneal exudate cells (PEC) of mice. Briefly: Peak chemiluminescence (CL) test: inhibition of oxygen radical liberation from activated peritoneal exudate cells. As to conditions: 10^-4 Mol substance/l, added at peak of cell activity; for inhibition at 100 µM (stock): Mus musculus, read-out: Inhibition in vitro of the oxygen radical liberation, Chemiluminescence Test % inhibition, Pk. CL. In kind it is cell-based. The procedure: 1. To determine the inhibiting effect on the oxygen radical-forming activity of inflamed cells, the in vitro inhibition of the release of oxygen radicals from activated peritoneal exudate cells (=PEC) of mice was determined in the chemiluminescence (CL) test according to the method of Mueller-Peddinghaus (Int. J. Immunopharmac. 6, 455-466 (1984)). […] The intensity of the chemiluminescence is a measurement of the oxygen radical content in the suspension and thus the degree of activity of the inflamed cells. In this, three functionally different parameters are detected, the spontaneous CL, the induced CL and the peak CL. The spontaneous CL and the induced CL on the one hand and the peak CL on the other hand differ from each other because in the first two parameters the test substances are in contact with the cells for a 30 minute preincubation period before the inflammation irritant is added, whereas with the peak CL the cells are first stimulated, and the test substance is added at the peak of their activity. The measurement of the spontaneous CL thus detects the influence of the test substance on the relative rest activity of inflamed cells, the induced CL represents the effect of the test substances on the activatability of the cells and the inhibition of the peak CL indicates the effect of the test substances on the maximum activity of the inflamed cells. 1.1 Production of PEC suspension used in the test. In order to induce the PEC formation, female mice of 20-25 g body weight were each injected i.p. with 2 ml of a 3% solution of thioglycollate in sterile isotonic sodium chloride solution. Twenty four hours after the thioglycollate injection the cells, which predominantly consisted of polymorphonuclear leucocytes, were recovered by washing out of the abdominal cavity and washed twice. As cell culture medium there was added a commercially available solution under the designation RPMI 1640 (pH 7.2) (produced by Flow Laboratories, […], Germany), which contains 10% fetal calf serum (FCS, produced by Seromed GmbH, Munich, Germany) 18 μmol/l sodium bicarbonate and 2 μmol/l L-glutamine. The cell pellets of four animals each time were resuspended in cell culture medium, collected together and the suspension was made up to 2×10^6 cells per ml with cell culture medium. The cell suspensions were kept under ice cooling until their use the same day. 1.2 Production of the complement opsonized zymosan (=ZyC3 b) suspension used for activation. 200 mg zymosan (glycoprotein mixture isolated from the cell walls of brewer's yeast, Sacchomyces […], produced by Sigma Chemical Co., Munich, Germany) were suspended in 10 ml phosphate buffer solution according to Dulbecco (produced by Flow Laboratories, […], Germany), well stirred and heated for thirty minutes in a water bath to 100° C. After cooling, it was centrifuged for five minutes at 4° C. and at 600 ×g and the supernatant was discarded. The sediment was resuspended in 50 ml human serum and incubated for thirty minutes at 37° C. in a shaking water bath. Then it was centrifuged for five minutes at 600 ×g and 420 C., the supernatant decanted and the sediment washed with phosphate buffer solution. The working suspension of 8×10^-3 g ZyC3 b/ml was produced from the sediment by dilution with phosphate buffer solution (Mueller-Peddinghaus et al., Zbl. Vet. Med. B. 30, 559-575). 1.3 Chemiluminescence (CL) measurement (Peak-CL). The PEC suspension was divided into samples of 100 μl each, placed in test tubes, and these were incubated for ten minutes at a temperature of 3720 C. in a measurement device (Chemiluminescence analyzer, Laboratorium Prof. Berthold, Wildbad, Germany). Then in order to amplify the chemiluminescence, 100 μl lucigenin solution was added (final concentration 1.54×10^-4 mol/l) and incubated for 16 more minutes. The cells were then activated by the addition of 100 μl of the ZyC3 b suspension produced as described in section 1.2 plus 100 μl phosphate buffer solution. […]

The subject of a further data set is male mice. Briefly: Determination of the minimum toxic dose. In kind it is in vivo. As to conditions: max. dose 300 mg/kg, 24 h. The procedure: 3. Determination of the minimum toxic dose.
Male mice of 20 to 25 g weight were given maximal doses of 300 mg/kg of test substance per os. The animals were carefully watched over a period of three hours for toxicity symptoms. Over a period of twenty-four hours after administration, all symptoms and deaths were recorded. Associated symptoms were also watched and recorded. If death or strongly toxic symptoms were noted, further mice were given increasingly lower doses. The lowest dose which brought about death or strongly toxic symptoms was reported as the minimum toxic dose.

[3] abbreviates: 10^-4 Mol/l, Ca-ionophore A 23187, arachidonic acid.

The inhibition in vivo is the change of the read-out against control, counted positive when it falls. The compound `COc1cc(-c2oc3ccccc3c(=O)c2C(=O)N2CCN(c3ccccn3)CC2)cc(OC)c1OC` [Example 7b, 3',4',5'-trimethoxy-3-{[4-(2-pyridyl)-piperazin-1-yl]-carbonyl}flavone] yielded an inhibition in vivo at 215 µmol/kg in data set [1] (po, 215 μmol/kg p.o.) of 40%. In addition, the “Lipoxygenase inhib. in vitro, % inhibition of the LTB4 synthesis at 10^-4 Mol/l” value with Lipoxygenase (setting [3]) is listed as 42%. In addition, the “Inhibition in vitro of the oxygen radical liberation, Chemiluminescence Test % inhibition, Pk. CL” value in data set [2] is on record as 44%. Moreover, the “Minimal toxic dose mg/kg mouse p.o.” value in the data set with male mice was over 300 mg/kg.
Compound `O.O=C(O)C(O)C(O)C(=O)O.O=C(c1c(-c2ccccc2)oc2ccccc2c1=O)N1CCN(Cc2ccccc2)CC1` [Example 2b, 3-[(4-benzyl-piperazin-1-yl)-carbonyl]flavone tartrate monohydrate] had an inhibition in vivo at 100 µmol/kg in data set [1] (po) of 25%. Also, the inhibition at 100 µM in the data set with Lipoxygenase was 92%. Also, the inhibition at 100 µM (stock) in data set [2] is 58%. Also, in the data set with male mice, the “Minimal toxic dose mg/kg mouse p.o.” value is recorded as over 300 mg/kg.
For `O=C(NCCCCN1CCN(c2ccccn2)CC1)c1c(-c2ccccc2)oc2ccccc2c1=O` [Example 4e, 3-{4-[4-(2-pyridyl)-piperazin-1-yl]-butylaminocarbonyl}flavone], the inhibition in vivo at 215 µmol/kg in data set [1] (ip, 215 μmol/kg i.p.) stood at 54%; in data set [1] (po, 215 μmol/kg p.o.) it was 50%. The inhibition at 100 µM with Lipoxygenase (setting [3]) worked out at 10%. In addition, the inhibition at 100 µM (stock) in data set [2] was 76%. Besides, the “Minimal toxic dose mg/kg mouse p.o.” value in the data set with male mice is reported as 300 mg/kg.
The compound `O.O.O=C(O)C(O)C(O)C(=O)O.O=C(c1c(-c2cc(O)c(O)c(O)c2)oc2ccccc2c1=O)N1CCN(Cc2ccccc2)CC1` [Example 14e, 3',4',5'-trihydroxy-3-[(4-benzylpiperazin-1-yl)carbonyl] -flavone tartrate dihydrate] displayed an inhibition in vivo at 215 µmol/kg in data set [1] (ip, 215 μmol/kg i.p.) of 33%. Moreover, in the data set on Lipoxygenase, the inhibition at 100 µM was 86%. In data set [2], the inhibition at 100 µM (stock) was 99%. Moreover, the “Minimal toxic dose mg/kg mouse p.o.” value with male mice was over 300 mg/kg.
Regarding `COc1cc(-c2oc3ccccc3c(=O)c2C(=O)NCCCCN2CCN(c3ncccn3)CC2)cc(OC)c1OC` [Example 54], the inhibition in vivo at 215 µmol/kg in data set [1] (ip, 215 μmol/kg i.p.) is 40%. For the same compound, in the data set on Lipoxygenase (setting [3]), the inhibition at 100 µM came out at 44%. The inhibition at 100 µM (stock) in data set [2] was 72%. The “Minimal toxic dose mg/kg mouse p.o.” value in the data set on male mice was over 300 mg/kg.
Regarding `COc1cc(OC)c2c(=O)c(C(=O)N3CCN(c4ccccn4)CC3)c(-c3ccccc3)oc2c1` [Example 34], in data set [1] (po, 215 μmol/kg p.o.), the inhibition in vivo at 215 µmol/kg stood at 30%. Besides, in the data set on Lipoxygenase (setting [3]), the inhibition at 100 µM was found to be 25%. Moreover, the inhibition at 100 µM (stock) in data set [2] turned out to be 25%.
With `Cl.O=C(c1c(-c2ccccc2)oc2ccccc2c1=O)N1CCN(c2ccccn2)CC1` [Example 1c, 3-{[4-(2-Pyridyl)-piperazin-1-yl]-carbonyl}flavone hydrochloride], the inhibition in vivo at 215 µmol/kg in data set [1] (ip, 215 μmol/kg i.p.) was 55%. In data set [1] (po), this compound displayed an inhibition in vivo at 100 µmol/kg of 44%. The inhibition at 100 µM in the data set on Lipoxygenase (setting [3]) was found to be 52%. Further, the inhibition at 100 µM (stock) in data set [2] is 47%. The “Minimal toxic dose mg/kg mouse p.o.” value in the data set with male mice is over 300 mg/kg.
`CN1CCN(CCCCNC(=O)c2c(-c3ccccc3)oc3ccccc3c2=O)CC1` [Example 24]: the inhibition at 100 µM in the data set with Lipoxygenase (setting [3]) is 46%. In data set [2], the inhibition at 100 µM (stock) turned out to be 1%. In the data set on male mice, the “Minimal toxic dose mg/kg mouse p.o.” value is on record as over 300 mg/kg.
For `COc1ccc(-c2oc3ccccc3c(=O)c2C(=O)N2CCN(c3ccccn3)CC2)cc1OC` [Example 32b], in that order: 25%, 56% and over 300 mg/kg.
`O=C(NCCc1ccccn1)c1c(-c2cc(O)c(O)c(O)c2)oc2ccccc2c1=O` [Example 53] displayed an inhibition in vivo at 215 µmol/kg in data set [1] (ip, 215 μmol/kg i.p.) of 50%. In addition, the inhibition at 100 µM in the data set with Lipoxygenase (setting [3]) was determined as 77%. Besides, in data set [2], the inhibition at 100 µM (stock) was 77%.
In data set [1] (ip, 215 μmol/kg i.p.), `CC(=O)Oc1cc(-c2oc3ccccc3c(=O)c2C(=O)N2CCN(c3ccccn3)CC2)cc(OC(C)=O)c1OC(C)=O` [Example 39b] showed an inhibition in vivo at 215 µmol/kg of 62%. Further, the inhibition at 100 µM in the data set with Lipoxygenase (setting [3]) stood at 93%. Besides, the inhibition at 100 µM (stock) in data set [2] was found to be 99%.
`COc1cc(-c2oc3ccccc3c(=O)c2C(=O)N2CCN(c3ccccn3)CC2)cc(OC)c1OC` [Example 7a, 3',4',5'-trimethoxy-3-{[4-(2-pyridyl)-piperazin-1-yl]-carbonyl}flavone]: the inhibition at 100 µM with Lipoxygenase (setting [3]) worked out at 38%. For the same compound, in data set [2], the “Inhibition in vitro of the oxygen radical liberation, Chemiluminescence Test % inhibition, Pk. CL” value was determined as 68%. In addition, in the data set with male mice, the “Minimal toxic dose mg/kg mouse p.o.” value is recorded as over 300 mg/kg.
Regarding `O=C(c1c(-c2cccc(O)c2)oc2ccccc2c1=O)N1CCN(Cc2ccccc2)CC1` [Example 30], in the data set on Lipoxygenase (setting [3]), the inhibition at 100 µM came out at 44%. Further, the inhibition at 100 µM (stock) in data set [2] turned out to be 85%. Also, the “Minimal toxic dose mg/kg mouse p.o.” value with male mice is recorded as over 300 mg/kg.
For `CCN(CC)CCCOC(=O)c1c(-c2ccccc2)oc2ccccc2c1=O.Cl` [Example 3b, 3-[3-(diethylamino)propoxycarbonyl]flavone hydrochloride], in the data set on Lipoxygenase (setting [3]), the inhibition at 100 µM came out at 8%. In data set [2], the inhibition at 100 µM (stock) worked out at 61%. Moreover, the “Minimal toxic dose mg/kg mouse p.o.” value with male mice is listed as 300 mg/kg.

The record behind these values is patent US4886806A, “Flavone-3-carboxylic acids compounds and pharmaceutical compositions containing them” (Kali-Chemie Pharma GmbH, priority 1987, dated 1989).
